pIC50: −log10 of the molar value.
Experiments:
H292 and H3118 cells [1] = assay: MTS proliferation assay; assay type: cell-based; conditions: Homo sapiens, NCI-H292, 120 h, MTS assay on day 5 of treatment, read-out: IC50, cell growth
Procedure: FIG. 6 illustrates PI3-kinase signaling contributes to MEC cell growth. A. Effects of PI3-kinase inhibitor LY-294002 or Compound A on MEC cell growth. […] The same blot was stripped and probed with anti-AKT or anti-V.-actin antibody. Image was cropped and auto-leveled by Photoshop. A representative of three independent experiments. (Right) MEC cell growth was measured by MTS assay on day 5 of LY-294002 or Compound A treatment. Points: mean, bars: SD (n=3). B. Effects of knock-down of PI3-kinase α or β on MEC cell growth. […] cell lysates were prepared on day 5 post-transduction. Image was cropped and auto-leveled by Photoshop. […] Cell numbers were counted by trypan blue exclusion on day 5 posttransduction. […] SD (n=3). **p<0.01, ***p<0.001 compared to control cells. C. […] Cell numbers were counted by trypan blue exclusion on day 5, Columns: mean, bars: SD (n=3). The Methods were described previously (Chen et al. […] On day 5 post infection, cells were counted by trypan blue exclusion. MTS proliferation assay (Promega, Madison, Wis.): 1-2×10^3 cells were treated with LY-294002, Compound A or DMSO in the concentration as indicated in FIG. 6A. MTS activities were measured on day 5. […] DNA amount was measured by flow cytometry analysis (BD FACScans). […] Cell viability was measured using the Annexin-V-FLUOS Staining Kit (Roche Diagnostics, Indianapolis, Ind.) by flow cytometry analysis (BD FACScans).

H292 and H3118 cells [2] = assay: Cell growth, cell count by trypan blue exclusion; assay type: cell-based; conditions: MEC cells, cell count by trypan blue exclusion on day 5
Procedure: (§1) FIG. 2 illustrates inhibition of PDE4B by pharmacological inhibitor rolipram plus forskolin prevents cell growth, causes cell cycle arrest and induces apoptosis in fusion positive MEC cells. Rolipram (R), forskolin (FK), Rolipram plus forskolin (R+FK) or DMSO. Columns: mean, bars: SD (n>3), *p<0.05, **p<0.01, ***p<0.001, compared to HSY cell growth. B. 1×10^5 cells were treated with 50 μM R plus 20 μM FK or DMSO for 24 hours. C. 1×10^5 cells were treated with 50 μM rolipram plus 20 μM forskolin with or DMSO for 48 hours. Apoptosis assay was performed by PI and Annexin-V staining and analyzed by flow cytometry. Columns: mean, bars: SD (n=3). *p<0.05, compared with DMSO treated cells.
FIG. 6 illustrates PI3-kinase signaling contributes to MEC cell growth. A. Effects of PI3-kinase inhibitor LY-294002 or Compound A on MEC cell growth. […] The same blot was stripped and probed with anti-AKT or anti-V.-actin antibody. Image was cropped and auto-leveled by Photoshop. A representative of three independent experiments. (Right) MEC cell growth was measured by MTS assay on day 5 of LY-294002 or Compound A treatment. Points: mean, bars: SD (n=3). B. Effects of knock-down of PI3-kinase α or β on MEC cell growth. […] H3118 cell lysates were prepared on day 5 post-transduction. Image was cropped and auto-leveled by Photoshop. (Lower) Effects of knock-down of PI3-kinase α or β on MEC cell growth. 1×10^5 cells were transduced twice with lenti-viruses harboring shRNAs targeting PI3-K α, β or scramble control. Cell numbers were counted by trypan blue exclusion on day 5 posttransduction. Cell growth of scramble control virus infected cells was set to 100%, Columns: mean, bars: SD (n=3). **p<0.01, ***p<0.001 compared to control cells. C. Effects of Compound A in combination of rolipram plus forskolin on of MEC cell growth. 1×10^5 cells were treated with the combination of inhibitors listed. Cell numbers were counted by trypan blue exclusion on day 5, Columns: mean, bars: SD (n=3).
(§2) The Methods were described previously (Chen et al. Genes Cancer, 1:822-835 (2010)). Cell growth: 1-2×10^5 cells were infected with lenti-virus harboring specific shRNAs. On day 5 post infection, cells were counted by trypan blue exclusion. MTS proliferation assay (Promega, Madison, Wis.): 1-2×10^3 cells were treated with LY-294002, Compound A or DMSO in the concentration as indicated in FIG. 6A. MTS activities were measured on day 5. Cell cycle analysis: 1×10^5 cells were treated with inhibitors or infected with viruses. DNA amount was measured by flow cytometry analysis (BD FACScans). Apoptosis assay: 1×10^5 cells were treated with inhibitors or infected with virus. Cell viability was measured using the Annexin-V-FLUOS Staining Kit (Roche Diagnostics, Indianapolis, Ind.) by flow cytometry analysis (BD FACScans).

H3118 cells [3] = assay: In vivo murine xenograft model; set-up: species or system SCID hairless (SHO) mice
Description: FIG. 4 illustrates knock-down of PDE4B inhibited MEC cell growth in vivo. A. Tumor volume in SCID hairless mice. Points: mean of 5 tumors, bars: SD (n=5). ***p<0.001, compared to control tumor. B. Representative picture of the tumors dissected from the mice after sacrifice on day 30. Five pair (shPDE4B vs. scramble control) of tumors was shown (n=5). C. Tumor weight from SCID hairless mice. Tumors were weighted on day 30 at sacrifice. Columns: mean, bars: SD (n=5). ***p<0.001, compared to control tumor weight. D. RT-qPCR analysis of PDE4B expression from the tumor biopsies. Columns: mean, bars: SD (n=3). ***p<0.001, compared to control tumor.
Mice were maintained and treated in accordance with institutional guidelines of Dana Farber Cancer Institute Animal Resource Facilities. H3118 cells were infected twice with shPDE4B-2 or scramble control virus. On day three post-transduction, 5×10^6 shPDE4B cells were injected subcutaneously (s.c.) into one flank of a SCID hairless (SHO) mice (Charles River Laboratories International, Inc., Wilmington, Mass.) and 5×10^6 control cells were injected into the opposite flank (Dubrovska et al., Proc Natl Acad Sci USA, 2009, 106: 268-273; Serra et al. Cancer Res, 2008, 68: 8022-8030). A total of five mice were used. The tumor volume was measured every two days starting from day 10, volume=(length×width2)×(π/6). Mice were sacrificed on day 30. The tumors were excised and the weight was measured.

HSY cells [4] = assay: Apoptosis assay, PI and Annexin-V staining; assay type: cell-based; conditions: PDE4B knock-down, day 5 post-transduction
Procedure: as §1
(§3) FIG. 3 illustrates knock-down of PDE4B inhibits fusion positive MEC cell growth, causes cell cycle arrest and induces apoptosis. […] Cell cycle was determined by PI staining followed by FACS analysis on day 5 post-transduction, n=3. […] Apoptosis assay was performed by PI and Annexin-V staining and analyzed by flow cytometry on day 5 post-transduction, Columns: mean, bars: SD (n=3). *p<0.05, compared with control cells.
(§4) The Methods were described previously (Chen et al. Genes Cancer, 1:822-835 (2010)). […] On day 5 post infection, cells were counted by trypan blue exclusion. […] MTS activities were measured on day 5. […] DNA amount was measured by flow cytometry analysis (BD FACScans). […]

H292 and H3118 cells [5] = assay: Apoptosis assay, PI and Annexin-V staining; assay type: cell-based; conditions: PDE4B knock-down, day 5 post-transduction
Procedure: as §1, §3, §4

HSY cells [6] = assay: Cell growth, cell count by trypan blue exclusion; assay type: cell-based; conditions: HSY cells, PDE4B knock-down
Procedure: as §1
(§5) FIG. 3 illustrates knock-down of PDE4B inhibits fusion positive MEC cell growth, causes cell cycle arrest and induces apoptosis. A. H3118 cell lysate was prepared on day 5 post-transduction and subjected to western blot analysis. Image was cropped and auto-leveled by Photoshop. A representative of three independent experiments. B. 1×10^5 MEC cells were infected twice by shRNA No. 1 and No. 2 and cell number was count on day 5 post-transduction by trypan blue exclusion. Columns: mean, bars: SD (n>3). *p<0.05, **p<0.01, compared with scramble control virus infected cell growth. C. 1×10^5 cells were infected twice by shRNA No. 2. Cell cycle was determined by PI staining followed by FACS analysis on day 5 post-transduction, n=3. D. 1×10^5 cells were infected twice by shRNA No. 2. Apoptosis assay was performed by PI and Annexin-V staining and analyzed by flow cytometry on day 5 post-transduction, Columns: mean, bars: SD (n=3). *p<0.05, compared with control cells.
as §2

H3118 cells [7] = assay: Cell growth, cell count by trypan blue exclusion; assay type: cell-based; conditions: PDE4B knock-down, day 5 post-transduction, compared to scramble control
Procedure: as §5, §2

H292 cells [8] = assay: Cell growth, cell count by trypan blue exclusion; assay type: cell-based; conditions: PDE4B knock-down, day 5 post-transduction, compared to scramble control
Procedure: as §5, §2

HSY cells [9] = assay: Cell cycle analysis by flow cytometry; assay type: cell-based; conditions: PDE4B knock-down
Procedure: as §1, §5
(§6) The Methods were described previously (Chen et al. Genes Cancer, 1:822-835 (2010)). […] On day 5 post infection, cells were counted by trypan blue exclusion. […] MTS activities were measured on day 5. […] DNA amount was measured by flow cytometry analysis (BD FACScans). […] Cell viability was measured using the Annexin-V-FLUOS Staining Kit (Roche Diagnostics, Indianapolis, Ind.) by flow cytometry analysis (BD FACScans).

H3118 cells [10] = assay: Cell cycle analysis by flow cytometry; assay type: cell-based; conditions: PDE4B knock-down, day 5 post-transduction; scramble control 57%
Procedure: as §1, §5, §6

H292 cells [11] = assay: Cell cycle analysis by flow cytometry; assay type: cell-based; conditions: PDE4B knock-down, day 5 post-transduction; scramble control 50%
Procedure: as §1, §5, §6

Cn1c(=O)n(-c2ccc(C(C)(C)C#N)cc2)c2c3cc(-c4cnc5ccccc5c4)ccc3ncc21 [Compound A, 2-methyl-2-[4-(3-methyl-2-oxo-8-quinolin-3-yl-2,3-dihydroimidazo[4,5-c]quinolin-1-yl)-phenyl]propionitrile]
pIC50 (H292 and H3118 cells [1]): 7.70 to 8.22 | effect on MEC cell growth when combined with rolipram and forskolin (H292 and H3118 cells [2]): additive effect

shRNA #2: shRNA lenti-viral construct targeting PDE4B, SEQ ID NO 2 (CCGGGCGCAGAGAGTCATTTCTCTACTCGAGTAGAGAAATGACTCTCTGCGCTTTTTG)
tumor growth in vivo (in words) (H3118 cells [3]; H3118 cells with PDE4B knock-down vs control cells, s.c., tumor volume every two days): significantly slower | repression of PDE4B expression in tumor biopsies (H3118 cells [3]; RT-qPCR, compared to controls): 71% | average tumor weight, less than controls (H3118 cells [3]; day 30 at sacrifice): 88% | apoptosis (in words) (HSY cells [4]): no significant effect | apoptosis (in words) (H292 and H3118 cells [5]): significant apoptosis | cell growth (in words) (HSY cells [6]): slight growth reduction | growth inhibition (H3118 cells [7]): 83% | growth inhibition (H292 cells [8]): 74% | cell cycle arrest (in words) (HSY cells [9]): much less effect | cells arrested at G0/G1 phase (H3118 cells [10]): 79% | cells arrested at G0/G1 phase (H292 cells [11]): 78%

O=c1cc(N2CCOCC2)oc2c(-c3ccccc3)cccc12 [LY-294002]
pIC50 (H292 and H3118 cells [1]): 5.00 to 5.40

shRNA #1: shRNA lenti-viral construct targeting PDE4B, SEQ ID NO 1 (CCGGGCTTGAGTAAATCCTACAGTTCTCGAGAACTGTAGGATTTACTCAAGCTTTTTG)
cell growth (in words) (HSY cells [6]): slight growth reduction | growth inhibition (H3118 cells [7]): 83% | growth inhibition (H292 cells [8]): 74%
